Entries after “also recorded” stand apart in the source; their conditions may differ.
Columns and labels:
[1] = target: T1, wild-type EPSP synthase of tomato (Solanum lycopersicum, UniProt P10748); test: EPSP synthase activity assay, extracts of E. coli SR481 harboring pMON9719; assay type: biochemical
T1 construct: ATG translational initiation codon at the site predicted to be the start of the mature enzyme for in vitro expression in E. Coli; initiator methionine (ATG in an engineered NcoI site) (N); made in house; host or cells: E. coli SR481 (aroA mutant) harboring pMON9719, desalted cell extract
T1 sequence (P10748 77-520): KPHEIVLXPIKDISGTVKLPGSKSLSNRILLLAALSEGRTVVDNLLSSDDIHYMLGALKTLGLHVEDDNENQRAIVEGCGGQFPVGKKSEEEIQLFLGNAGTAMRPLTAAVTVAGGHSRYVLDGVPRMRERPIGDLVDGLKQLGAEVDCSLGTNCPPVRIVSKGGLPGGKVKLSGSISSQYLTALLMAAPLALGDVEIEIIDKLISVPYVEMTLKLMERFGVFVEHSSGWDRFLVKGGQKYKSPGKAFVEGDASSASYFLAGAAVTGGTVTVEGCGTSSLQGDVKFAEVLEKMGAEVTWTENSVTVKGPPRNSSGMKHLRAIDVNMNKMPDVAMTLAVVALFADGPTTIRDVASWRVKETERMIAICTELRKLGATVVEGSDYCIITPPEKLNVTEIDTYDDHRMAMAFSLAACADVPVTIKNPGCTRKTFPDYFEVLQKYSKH
Experimental: E. coli SR481 cells harboring pMON9719 or pMON9729 were grown under conditions which induce the expression of the RecA promoter. The cells were lysed and the extracts were assayed for EPSP synthase activity.
Specifically, the bacterial cell paste was washed twice with 0.9% saline, suspended in buffer (100 mM Tris-HCl, 5 mM dithiothreitol, 1 mM EDTA, 10% glycerol and 1 mM benzamidine HCl) passed twice through the French Pressure Cell at 1000 psi. The cell abstract was separated from the cells by centrifuging at 15,000×gravity for 10 mins. at 5° C. It was desalted using Sephadex G-50 (Pharmacia, Piscataway, N.J.). The desalted extract was assayed for EPSP synthase activity as follows:
To an assay mix (40 μl) containing shikimate-3-phosphate (2 mM), ^14 C-phosphoenolpyruvate (1 mM, 1.2 mCi/mmol), ammonium molybdate (0.1 mM), potassium fluoride (5 mM), in 50 mM HEPES-KOH, pH 7, was added 10 μl of the extract and incubated at 25° C. for 2 mins. […] The radioactivity of the eluent was monitored using a Radiometric Flo-One Beta Instrument. […] The EPSP synthase activity was determined by measurement of the conversion of ^14 C-PEP to ^14 […], both of which are resolved under the above conditions of chromatography. The protein content of the extract was determined by the method of Bradford (Biorad Labs, Calif.). […]

[2] = target: T2, wild-type maize EPSP synthase (Zea mays, UniProt A0A1D6NVZ6); test: EPSP synthase activity of in vitro translation product of pMON9951; assay type: biochemical; conditions: 1.0 mM glyphosate
T2 sequence (A0A1D6NVZ6 1-506): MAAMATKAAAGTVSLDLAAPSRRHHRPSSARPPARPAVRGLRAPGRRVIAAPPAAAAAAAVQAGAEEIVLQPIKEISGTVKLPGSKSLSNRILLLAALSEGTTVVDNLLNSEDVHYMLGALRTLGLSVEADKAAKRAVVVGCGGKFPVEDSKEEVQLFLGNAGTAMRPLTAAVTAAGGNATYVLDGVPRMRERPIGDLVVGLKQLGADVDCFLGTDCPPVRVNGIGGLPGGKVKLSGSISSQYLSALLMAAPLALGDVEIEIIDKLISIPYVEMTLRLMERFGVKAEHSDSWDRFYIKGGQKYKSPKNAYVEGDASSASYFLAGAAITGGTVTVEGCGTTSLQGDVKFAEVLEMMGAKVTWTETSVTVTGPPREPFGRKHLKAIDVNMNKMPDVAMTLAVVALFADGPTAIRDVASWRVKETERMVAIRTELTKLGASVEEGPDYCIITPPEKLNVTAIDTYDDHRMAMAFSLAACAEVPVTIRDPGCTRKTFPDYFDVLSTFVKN
Experimental: The linearized plasmid DNA was transcribed in vitro with T7 polymerase essentially as described by Krieg et al. 1984. The standard reaction buffer contained 40 mM Tris-HCl (pH 7.9), 6 mM MgCl2, 10 mM dithiothreitol, 2 mM spermidine, 80 U RNAsin ribuonuclease inhibitor, 0.5 mM each of ATP, GTP, CTP and UTP, in a final reaction volume of 100 μl. The final RNA pellet was resuspended in 20 μl of sterile water and stored at -80° C. A standard translation reaction contained 100 μl of nuclease-treated rabbit reticulocyte lysate, 5.7 μl of a 19-amino acid mixture (minus methionine at 1 mM each, 5.7 μl of RNA (total RNA transcripts derived from 0.63 μg of plasmid DNA), 16 μl RNAsin (20U/μl) ribonuclease inhibitor, and 58.3 μl of [^35 S] methionine (14-15 mCi/ml). The in vitro translation products were stored frozen at -80 ° C.
The products of the in vitro translation were then assayed for EPSP synthase activity as described herein.

[3] = system: wild-type (non-transformed) petunia plants; test: Plant response to glyphosate spraying, control plants; assay type: in vivo; conditions: 0.8 #/acre acid equivalent, isopropylamine salt sprayed
Experimental: Four individual representative transgenic seedlings were selected, grown and tested in the testing procedure described below, along with four individual non-transformed (wild-type) petunia seedlings.
The plants were grown in a growth medium in a growth chamber at 26° C. with 12 hours of light per day. The plants were fertilized weekly with a soluble fertilizer and watered as needed. The plants were sprayed at a uniform and reproducible delivery rate of herbicide by use of an automated track sprayer. The glyphosate solution used was measured as pounds of glyphosate acid equivalents per acre, mixed as the glyphosate isopropylamine salt, with an ionic surfactant.
Four individual wild-type (non-transformed) petunia plants were selected for use as control plants. Four individual transformed plants containing the pMON546 vector were selected by kanamycin resistance as described in Horsch et al. (1985).
The control plants and the transformed plants were sprayed with the isopropylamine salt of glyphosate at the application level listed in Table 2 below; the experimental results obtained are also summarized in Table 2.

[4] = system: tobacco plants transformed with wild-type EPSP synthase gene; test: Relative effect of glyphosate spray on transformed tobacco, wild-type gene; assay type: in vivo, Nicotiana tabacam CV H425; set-up: key: 0 = total kill, 10 = normal unsprayed plant; conditions: WT
Text: A culture of A. tumefaciens cells containing pMON567/pGV3111-SE was contacted with leaf disks taken from tobacco plants (Nicotiana tabacam CV H425) as described by Horsch (1985). The Agrobacterium cells inserted the mutant EPSP synthase gene into the chromosomes of the plant cells. Plant cells resistant to kanamycin were selected and regenerated into differentiated plants by the procedure of Horsch (1985).
Progeny of these plants were propagated and grown to a rosette diameter of about 10 cm corresponding to a plant age of about four weeks. The plants were sprayed with glyphosate at levels corresponding to 2.0 and 3.6 pounds acid equiv./acre. […] The effect was translated to a numerical scale of 0-10 in which 0 represents total kill and 10 is the normal, unsprayed plant. […] The values represent the best transformant for both wild-type EPSP synthase and glyphosate-tolerant EPSP synthase genes.

wild type callus = test: Growth of wild type callus on glyphosate; assay type: cell-based, Brassica napus; conditions: 0.5 mM glyphosate

O=C(O)CNCP(=O)(O)O [glyphosate, N-phosphonomethylglycine]
IC50 [1]: 12 µM
EPSP synthase activity in the presence of glyphosate [2]: no activity was detected
Visual Appearance [3]: completely dead; also recorded: killed
Relative effect of glyphosate (0 total kill, 10 no effect) ([4]; 0.4 Pounds/Acre, Day 7, best transformant): 6.0
Relative effect of glyphosate (0 total kill, 10 no effect) ([4]; 0.4 Pounds/Acre, Day 14, best transformant): 7.0
Relative effect of glyphosate (0 total kill, 10 no effect) ([4]; 0.4 Pounds/Acre, Day 28, best transformant): 9.0
Relative effect of glyphosate (0 total kill, 10 no effect) ([4]; 2.0 Pounds/Acre, Day 7, best transformant): 5.0
Relative effect of glyphosate (0 total kill, 10 no effect) ([4]; 2.0 Pounds/Acre, Day 14, best transformant): 1.8
Relative effect of glyphosate (0 total kill, 10 no effect) ([4]; 2.0 Pounds/Acre, Day 28, best transformant): 0.8
Relative effect of glyphosate (0 total kill, 10 no effect) ([4]; 3.6 Pounds/Acre, Day 7, best transformant): 5.0
Relative effect of glyphosate (0 total kill, 10 no effect) ([4]; 3.6 Pounds/Acre, Day 14, best transformant): 1.7
Relative effect of glyphosate (0 total kill, 10 no effect) ([4]; 3.6 Pounds/Acre, Day 28, best transformant): 0.8
effect on callus (wild type callus): kills
